Test results published in patent US6218438A, “Copolymer compositions for treating viral infections” (Supratek Pharma, Inc., priority 1999, dated 2001).

Columns and labels:
[1] = biological target: T1, HIV-1 reverse transcriptase (p51/p66 RT), RDDP activity (Human immunodeficiency virus type 1 group M subtype B, UniProt P03366); test: Inhibition of RNA dependent DNA polymerase activity of RT (RT RDDP); format: biochemical
T1 construct: 10 ng of p51/p66 heterodimeric RT per assay were used
Protocol: (§1) BBNH and Fe(III)-BBNH complex at various concentrations were examined for the ability to inhibit RNA dependent and DNA dependent DNA polymerase activities as well as RNAse H activity of HIV-1 reverse transcriptase (RT RDDP, RT DDDP, and RT RNAse H, respectively). To analyze RT RDDP and RT DDDP the following reaction mixture (100 μl total volume) was used: 50 mM Tris-HCl (pH 7.8), 60 mM KCl, 10 mM MgCl2, 10 ng of p51/p66 RT, 0.1-0.5 units of template/primer, and 0.5-25 μM [^3 H]dNTP. Aliquots of the test compounds dissolved in DMSO were added to the reaction mixtures, incubated for 10-20 min. at 37° C. and than quenched with 500 μl of cold 20 mM sodium pyrophosphate in 10% dichloroacetic acid. After 10 min. on ice, the samples were filtered on Whatman 934-AH glass fiber filters and washed with 10% dichloroacetic acid and ethanol, and the radioactivity was determined by liquid scintillation analysis. To analyze RT RNAse H the following reaction mixture (50 μl total volume) was used: 5OmM Tris-HCl (pH 8.0), 60 mM KCl, 8 mM MgCl2, and variable amounts of ([^3 H]rG)-poly(dC). Generally, 10 ng of p51/p66 heterodimeric RT per assay were used. Aliquots of the test compounds dissolved in DMSO were added to the reaction mixtures, incubated for 20 min. at 37° C. and than quenched by placing the tubes on ice followed by the addition of 100 μl of cold 7% perchloric acid. After 10 min. on ice, the samples were centrifuged at 12,000 g for 15 min. 100 μl of the supernatants were carefully removed, and the radioactivity was determined by liquid scintillation analysis.

[2] = biological target: T2, HIV-1 reverse transcriptase (p51/p66 RT), DDDP activity (Human immunodeficiency virus type 1 group M subtype B, UniProt P03366); test: Inhibition of DNA dependent DNA polymerase activity of RT (RT DDDP); format: biochemical
T2 construct: 10 ng of p51/p66 heterodimeric RT per assay were used
Protocol: as §1

[3] = biological target: T3, HIV-1 reverse transcriptase (p51/p66 RT), RNAse H activity (Human immunodeficiency virus type 1 group M subtype B, UniProt P03366); test: Inhibition of RNAse H activity of RT; format: biochemical
T3 construct: 10 ng of p51/p66 heterodimeric RT per assay were used
Protocol: as §1

[4] = system: MT2 cells; test: Cytotoxic activity against uninfected MT2 cells (XTT assay); format: cell-based, human; details: 4 days at 37° C., in DMSO
Protocol: BBNH and Fe(III)-BBNH complex at various concentrations were examined for cytotoxic activity against uninfected MT2 cells. Aliquots of a solution of the compounds in dimethyl sulfoxide were added to the MT2 cells (2×10^5 cells/ml) in RPMI medium containing 10% fetal bovine serum to provide defined final concentrations of test compound. The cells and test compounds were cultured for 4 days at 37° C., in the presence of 5% CO2 and then cytotoxic effect of the compounds was analyzed by using the standard XTT assay. The CC50 calculated from the results were 10±0.5 μM for BBNH and more than 1000 μM for Fe(III)-BBNH.

[5] = system: HIV-1 infection of MT2 cells; test: Inhibition of HIV-1 infection of uninfected MT2 cells; format: cell-based; details: compound in DMSO, 30 min before HIV
Protocol: BBNH and Fe(III)-BBNH complex at various concentrations were examined for the ability to inhibit HIV-1 infection of uninfected MT2 cells. Aliquots of a solution of the compounds in dimethyl sulfoxide were added to uninfected MT2 cells (2×10^5 cells/ml) in RPMI medium containing 10% fetal bovine serum to provide defined final concentrations of test compound. The cells and test compounds were incubated for 30 minutes at 37° C., then inoculated with a suspension of HIV virions. The cells, test compounds and HIV were incubated for 18 h at 37° C., then the cells were collected by centrifugation, washed, and resuspended in RPMI medium containing 10% fetal bovine serum and containing the same concentration of test compound as initially employed. The cells were then cultured at 37° C. (with culture medium changes as required). HIV infection was assessed by microscopic examination of HIV-induced cytopathicity (syncytium) and/or by analysis of HIV p24 antigen levels in the culture supernatants.

[6] = biological target: HIV-1 RT (Human immunodeficiency virus type 1 BH10, UniProt P03366); test: In vitro inhibition of HIV-1 RT enzymatic activities (RDDP, RNase H, DDDP); format: biochemical
[7] = system: HIV-1 replication in cells; test: Inhibition of HIV-1 replication in infected cells (general statement); format: cell-based
[8] = Solubility in a water medium (general statement); format: physicochemical

Structure (SMILES): CC(C)(C)c1ccc(C(=O)NN=Cc2c(O)ccc3ccccc23)cc1.C[O-].[Cl-].[Cl-].[Fe+3] [Fe(III)-BBNH]
- IC50 [1]: 0.4 ± 0.08 µM
- Ratio BBNH/Fe(III)-BBNH (IC50), RT RDDP [1]: 4.8
- IC50 [2]: 0.9 ± 0.3 µM
- Ratio BBNH/Fe(III)-BBNH (IC50), RT DDDP [2]: 13.5
- IC50 ([3]; 10 min. preincubation): 0.5 ± 0.07 µM
- Ratio BBNH/Fe(III)-BBNH (IC50), RT RNase H ([3]; 10 min. preincubation): 7
- IC50 ([3]; No preincubation): 0.9 ± 0.5 µM
- Ratio BBNH/Fe(III)-BBNH (IC50), RT RNase H ([3]; No preincubation): > 50
- CC50 [4]: > 1000 µM
- IC50 [5]: > 50 µM
- inhibitory activity against RT in vitro compared to the parent uncomplexed BBNH [6]: improved inhibitory activity compared to the parent uncomplexed BBNH
- antiviral activity against HIV-1 replication in cells [7]: no antiviral activity against HIV-1 replication in cells
- inhibition of HIV-1 replication in cells, water-organic formulations ([7]; water-organic formulations): very low activity
- solubility in a water medium [8]: practically insoluble in a water medium
